Data taken from US12594276B2, “Inhibitors of human immunodeficiency virus replication” (ViiV Healthcare UK (No.5) Limited, priority 2024, dated 2026).

Tested on: recombinant NL4-3 virus (nef section replaced with Renilla luciferase gene) in MT-2 cells
Test: HIV cell culture assay (antiviral activity, luciferase readout)
Assay type: cell-based
Conditions: Renilla, NL43, MT-2 cells infected for 4-5 days with recombinant NL4-3 Renilla luciferase virus
Experimental: HIV cell culture assay—MT-2 cells, 293T cells and the proviral DNA clone of NL4-3 virus were obtained from the NIH AIDS Research and Reference Reagent Program. MT-2 cells were propagated in RPMI 1640 media supplemented with 10% heat inactivated fetal bovine serum (FBS), […]. The 293T cells were propagated in DMEM media supplemented with 10% heat inactivated FBS, […]. A recombinant NL4-3 proviral clone, in which a section of the nef gene was replaced with the Renilla luciferase gene, was used to make the reference virus used in these studies. The recombinant virus was prepared through transfection of the recombinant NL4-3 proviral clone into 293T cells using Transit-293 Transfection Reagent from Mirus Bio LLC (Madison, WI). Supernatant was harvested after 2-3 days and the amount of virus present was titered in MT-2 cells using luciferase enzyme activity as a marker by measuring luciferase enzyme activity. Luciferase was quantitated using the EnduRen Live Cell Substrate from Promega (Madison, WI). Antiviral activities of compounds toward the recombinant virus were quantified by measuring luciferase activity in MT-2 cells infected for 4-5 days with the recombinant virus in the presence of serial dilutions of the compound.
The 50% effective concentration (EC50) was calculated by using the exponential form of the median effect equation where (Fa)=1/[1+(ED50/drug conc.)m](Johnson V A, Byington R T. Infectivity Assay. In Techniques in HIV Research. ed. Aldovini A, Walker B D. 71-76. New York: Stockton Press. 1990). Curve fitting and analysis were performed with ActivityBase XE Runner software version 9.1.0.4 using model 203 (ID Business Solutions, LTD, Guildford, UK).

| Compound | EC50 |
| --- | --- |
| Cc1cc(C2CCC(F)(F)CC2)nc2nc([C@H](Cc3cc(F)cc(F)c3)NC(=O)Cn3nc(C4CC4)c4c3C[C@H]3C[C@@H]43)n(-c3ccc(Cl)c4c(NS(C)(=O)=O)nn(CCN5CC(C)(C)OC(C)(C)C5)c34)c(=O)c12 (atropisomer, axis not shown; (P)) [Example 606, N-[(1S)-1-[(3P)-3-{4-chloro-3-methanesulfonamido-1-[2-(2,2,6,6-tetramethylmorpholin-4-yl)ethyl]-1H-indazol-7-yl}-7-(4,4-difluorocyclohexyl)-5-methyl-4-oxo-3H,4H-pyrido[2,3-d]pyrimidin-2-yl]-2-(3,5-difluorophenyl)ethyl]-2-[(2R,4R)-9-cyclopropyl-7,8-diazatricyclo[4.3.0.0^2,^4]nona-1(6),8-dien-7-yl]acetamide] | 0.026 nM |
| Cc1cc(C2CCC(F)(F)CC2)nc2nc([C@H](Cc3cc(F)cc(F)c3)NC(=O)Cn3nc(C(F)(F)F)c4c3C(F)(F)[C@@H]3C[C@H]43)n(-c3ccc(Cl)c4c(NS(C)(=O)=O)nn(CCN5CC(C)(C)OC(C)(C)C5)c34)c(=O)c12 (atropisomer, axis not shown; (P)) [Example 609, N-[(1S)-1-[(3P)-3-{4-chloro-3-methanesulfonamido-1-[2-(2,2,6,6-tetramethylmorpholin-4-yl)ethyl]-1H-indazol-7-yl}-7-(4,4-difluorocyclohexyl)-5-methyl-4-oxo-3H,4H-pyrido[2,3-d]pyrimidin-2-yl]-2-(3,5-difluorophenyl)ethyl]-2-[(2S,4R)-5,5-difluoro-9-(trifluoromethyl)-7,8-diazatricyclo[4.3.0.0^2,^4]nona-1(6),8-dien-7-yl]acetamide] | 0.033 nM |
| Cc1cc(C2CCC(F)(F)CC2)nc2nc([C@H](Cc3cc(F)cc(F)c3)NC(=O)Cn3nc(C4CC4)c4c3C(F)(F)[C@@H]3C[C@H]43)n(-c3ccc(Cl)c4c(NS(C)(=O)=O)nn(CCN5CC(C)(C)OC(C)(C)C5)c34)c(=O)c12 (atropisomer, axis not shown; (P)) [Example 610, N-[(1S)-1-[(3P)-3-{4-chloro-3-methanesulfonamido-1-[2-(2,2,6,6-tetramethylmorpholin-4-yl)ethyl]-1H-indazol-7-yl}-7-(4,4-difluorocyclohexyl)-5-methyl-4-oxo-3H,4H-pyrido[2,3-d]pyrimidin-2-yl]-2-(3,5-difluorophenyl)ethyl]-2-[(2S,4R)-9-cyclopropyl-5,5-difluoro-7,8-diazatricyclo[4.3.0.0^2,^4]nona-1(6),8-dien-7-yl]acetamide] | 0.017 nM |
| Cc1cc(C2CCC(F)(F)CC2)nc2nc([C@H](Cc3cc(F)cc(F)c3)NC(=O)Cn3nc(C(F)F)c4c3C[C@@H]3C[C@H]43)n(-c3ccc(Cl)c4c(NS(C)(=O)=O)nn(CCN5CC(C)(C)OC(C)(C)C5)c34)c(=O)c12 (atropisomer, axis not shown; (P)) [Example 611, N-[(1S)-1-[(3P)-3-{4-chloro-3-methanesulfonamido-1-[2-(2,2,6,6-tetramethylmorpholin-4-yl)ethyl]-1H-indazol-7-yl}-7-(4,4-difluorocyclohexyl)-5-methyl-4-oxo-3H,4H-pyrido[2,3-d]pyrimidin-2-yl]-2-(3,5-difluorophenyl)ethyl]-2-[(2S,4S)-9-(difluoromethyl)-7,8-diazatricyclo[4.3.0.0^2,^4]nona-1(6),8-dien-7-yl]acetamide] | 0.025 nM |
| Cc1cc(C2CCC(F)(F)CC2)nc2nc([C@H](Cc3cc(F)cc(F)c3)NC(=O)Cn3nc(C(F)(F)F)c4c3C[C@@H]3C[C@H]43)n(-c3ccc(Cl)c4c(NS(C)(=O)=O)nn(CCN5CC(C)(C)OC(C)(C)C5)c34)c(=O)c12 (atropisomer, axis not shown; (P)) [Example 612, N-[(1S)-1-[(3P)-3-{4-chloro-3-methanesulfonamido-1-[2-(2,2,6,6-tetramethylmorpholin-4-yl)ethyl]-1H-indazol-7-yl}-7-(4,4-difluorocyclohexyl)-5-methyl-4-oxo-3H,4H-pyrido[2,3-d]pyrimidin-2-yl]-2-(3,5-difluorophenyl)ethyl]-2-[(2S,4S)-9-(trifluoromethyl)-7,8-diazatricyclo[4.3.0.0^2,^4]nona-1(6),8-dien-7-yl]acetamide] | 0.028 nM |
| Cc1cc(C2CCC(F)(F)CC2)nc2nc([C@H](Cc3cc(F)cc(F)c3)NC(=O)Cn3nc([C@H]4CC4(F)F)c4c3C[C@H]3C[C@@H]43)n(-c3ccc(Cl)c4c(NS(C)(=O)=O)nn(CCN5CC(C)(C)OC(C)(C)C5)c34)c(=O)c12 (atropisomer, axis not shown; (P)) [Example 613, N-[(1S)-1-[(3P)-3-{4-chloro-3-methanesulfonamido-1-[2-(2,2,6,6-tetramethylmorpholin-4-yl)ethyl]-1H-indazol-7-yl}-7-(4,4-difluorocyclohexyl)-5-methyl-4-oxo-3H,4H-pyrido[2,3-d]pyrimidin-2-yl]-2-(3,5-difluorophenyl)ethyl]-2-[(2R,4R)-9-[(1R)-2,2-difluorocyclopropyl]-7,8-diazatricyclo[4.3.0.0^2,^4]nona-1(6),8-dien-7-yl]acetamide] | 0.015 nM |
| COCCCn1nc(NS(C)(=O)=O)c2c(Cl)ccc(-n3c([C@H](Cc4cc(F)cc(F)c4)NC(=O)Cn4nc(C(F)F)c5c4C(F)(F)[C@@H]4C[C@H]54)nc4nc(C5(CCN6C[C@H](F)C[C@H](F)C6)CCC(F)(F)CC5)cc(C)c4c3=O)c21 (atropisomer, axis not shown; (P)) [Example 615] | 0.027 nM |
| CS(=O)(=O)Nc1nn(CCN2C[C@H](F)C[C@H](F)C2)c2c(-n3c([C@H](Cc4cc(F)cc(F)c4)NC(=O)Cn4nc(C(F)F)c5c4C(F)(F)[C@@H]4C[C@H]54)nc4nc(C5CCC(F)(F)CC5)cc(CN5CC(F)(F)C5)c4c3=O)ccc(Cl)c12 (atropisomer, axis not shown; (P)) [Example 620, N-[(1S)-1-[(3P)-3-(4-chloro-1-{2-[(3R,5S)-3,5-difluoropiperidin-1-yl]ethyl}-3-methanesulfonamido-1H-indazol-7-yl)-5-[(3,3-difluoroazetidin-1-yl)methyl]-7-(4,4-difluorocyclohexyl)-4-oxo-3H,4H-pyrido[2,3-d]pyrimidin-2-yl]-2-(3,5-difluorophenyl)ethyl]-2-[(2S,4R)-9-(difluoromethyl)-5,5-difluoro-7,8-diazatricyclo[4.3.0.0^2,]nona-1(6),8-dien-7-yl]acetamide] | 0.007 nM |
| CC1(C)CN(CCn2nc(NS(C)(=O)=O)c3c(Cl)ccc(-n4c([C@H](Cc5cc(F)cc(F)c5)NC(=O)Cn5nc(C(F)F)c6c5C(F)(F)[C@@H]5C[C@H]65)nc5nc(C6CCC(F)(F)CC6)cc(CN6CC(F)(F)C6)c5c4=O)c32)CC(C)(C)O1 (atropisomer, axis not shown; (P)) [Example 621, N-[(1S)-1-[(3P)-3-{4-chloro-3-methanesulfonamido-1-[2-(2,2,6,6-tetramethylmorpholin-4-yl)ethyl]-1H-indazol-7-yl}-5-[(3,3-difluoroazetidin-1-yl)methyl]-7-(4,4-difluorocyclohexyl)-4-oxo-3H,4H-pyrido[2,3-d]pyrimidin-2-yl]-2-(3,5-difluorophenyl)ethyl]-2-[(2S,4R)-9-(difluoromethyl)-5,5-difluoro-7,8-diazatricyclo[4.3.0.0^2,4]nona-1(6),8-dien-7-yl]acetamide] | 0.005 nM |
